Data as given in the supplement of paper PMC8149375.

How the values were obtained:
Conditions in all cases: treatment: drug + dasatinib (fixed dose, not stated); 5 days
[1] = tested on: 769-P; assay: GI50 of drug in presence of dasatinib; higher = less potent
Method: (§1)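 Primary HTS combination arm: 8 RCC cell lines treated with 8 doses (up to 10 uM) of each library drug plus a fixed dose of dasatinib (dose not stated) for 5 days; viability read by CellTiter-Glo and normalised to DMSO. GI50 was fitted with XLfit, AUC is the area under the dose-response curve, and minimum viability is the lowest fraction of DMSO viability across doses.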

[2] = tested on: ACHN; assay: as above
Method: as §1

[3] = tested on: CAKI-1; assay: as above
Method: as §1

[4] = tested on: 786-O; assay: as above
Method: as §1

[5] = tested on: UO-31; assay: as above
Method: as §1

[6] = tested on: SN12C; assay: as above
Method: as §1

[7] = tested on: TK-10; assay: as above
Method: as §1

[8] = tested on: A498; assay: as above
Method: as §1

[9] = tested on: 769-P; assay: minimum viability across doses, drug + dasatinib, relative to DMSO (fraction); higher = less growth inhibition
Method: as §1

[10] = tested on: ACHN; assay: as above
Method: as §1

[11] = tested on: CAKI-1; assay: as above
Method: as §1

[12] = tested on: 786-O; assay: as above
Method: as §1

[13] = tested on: UO-31; assay: as above
Method: as §1

[14] = tested on: SN12C; assay: as above
Method: as §1

[15] = tested on: TK-10; assay: as above
Method: as §1

[16] = tested on: A498; assay: as above
Method: as §1

[17] = tested on: 769-P; assay: AUC of dose-response viability curve, drug + dasatinib, normalised to DMSO (arbitrary (AUC of normalised viability)); higher = less growth inhibition
Method: as §1

[18] = tested on: ACHN; assay: as above
Method: as §1

[19] = tested on: CAKI-1; assay: as above
Method: as §1

[20] = tested on: 786-O; assay: as above
Method: as §1

[21] = tested on: UO-31; assay: as above
Method: as §1

[22] = tested on: SN12C; assay: as above
Method: as §1

[23] = tested on: TK-10; assay: as above
Method: as §1

[24] = tested on: A498; assay: as above
Method: as §1

Compound	GI50 of drug [1]	GI50 of drug [2]	GI50 of drug [3]	GI50 of drug [4]	GI50 of drug [5]	GI50 of drug [6]	GI50 of drug [7]	GI50 of drug [8]	minimum viability across doses [9]	minimum viability across doses [10]	minimum viability across doses [11]	minimum viability across doses [12]	minimum viability across doses [13]	minimum viability across doses [14]	minimum viability across doses [15]	minimum viability across doses [16]	AUC of dose-response viability curve [17]	AUC of dose-response viability curve [18]	AUC of dose-response viability curve [19]	AUC of dose-response viability curve [20]	AUC of dose-response viability curve [21]	AUC of dose-response viability curve [22]	AUC of dose-response viability curve [23]	AUC of dose-response viability curve [24]
Cc1cc2c(F)c(Oc3ncnn4cc(OC[C@@H](C)O)c(C)c34)ccc2[nH]1 + Cc1nc(Nc2ncc(C(=O)Nc3c(C)cccc3Cl)s2)cc(N2CCN(CCO)CC2)n1 [dasatinib]	> 10 µM	1.04 µM	6.47 µM	> 10 µM	> 10 µM	> 10 µM	> 10 µM	> 10 µM	0.682	0.343	0.179	0.656	0.528	0.621	0.693	0.789	2.59	1.8	2.3	2.65	3.43	2.39	2.68	3.38
Cc1cc2c(F)c(Oc3ncnn4cc(OC[C@@H](C)OC(=O)[C@H](C)N)c(C)c34)ccc2[nH]1 + Cc1nc(Nc2ncc(C(=O)Nc3c(C)cccc3Cl)s2)cc(N2CCN(CCO)CC2)n1 [dasatinib]	> 10 µM	1.05 µM	7.6 µM	> 10 µM	9.86 µM	> 10 µM	> 10 µM	> 10 µM	0.617	0.316	0.431	0.504	0.457	0.605	0.674	0.733	2.41	1.89	2.59	2.48	3.27	2.47	2.69	3.16
C[C@@H]1COC(Nc2ccc3ncnc(Nc4ccc(OCc5nccs5)c(Cl)c4)c3c2)=N1 + Cc1nc(Nc2ncc(C(=O)Nc3c(C)cccc3Cl)s2)cc(N2CCN(CCO)CC2)n1 [dasatinib]	0.267 µM	0.0964 µM	3.55 µM	> 10 µM	> 10 µM	> 10 µM	0.614 µM	> 10 µM	0.18	0.286	0.318	0.49	0.679	0.638	0.318	0.988	1.87	1.62	2.16	2.05	3.53	2.36	2.03	4.08
O=C1NC(=O)/C(=C/c2ccc3c(c2)OC(F)(F)O3)S1 + Cc1nc(Nc2ncc(C(=O)Nc3c(C)cccc3Cl)s2)cc(N2CCN(CCO)CC2)n1 [dasatinib]	> 10 µM	> 10 µM	> 10 µM	> 10 µM	> 10 µM	> 10 µM	> 10 µM	> 10 µM	0.679	0.538	0.634	0.543	1.28	0.645	0.655	0.925	2.51	2.11	2.42	2.32	4.77	2.34	2.52	3.79
CN(C)Cc1cccc(N/C(=C2\C(=O)Nc3cc(C(=O)N(C)C)ccc32)c2ccccc2)c1 + Cc1nc(Nc2ncc(C(=O)Nc3c(C)cccc3Cl)s2)cc(N2CCN(CCO)CC2)n1 [dasatinib]	> 10 µM	0.631 µM	1.12 µM	3.74 µM	7.14 µM	2.48 µM	5.62 µM	9.88 µM	0.561	0.0657	0.0645	0.348	0.0229	0.229	0.386	0.473	2.43	1.61	2.09	2.19	3.62	2.35	2.49	3.5
Cc1n[nH]c2ccc(-c3cncc(OC[C@@H](N)Cc4ccccc4)c3)cc12 + Cc1nc(Nc2ncc(C(=O)Nc3c(C)cccc3Cl)s2)cc(N2CCN(CCO)CC2)n1 [dasatinib]	1.05 µM	0.0857 µM	0.225 µM	0.656 µM	0.984 µM	1.53 µM	1.13 µM	1.26 µM	0.00989	0.00362	0.0702	0.0069	0.00975	0.0087	0.166	0.012	1.98	1.42	1.57	1.77	1.97	1.9	2.16	2.92
Nc1nccc(Oc2ccc(NC(=O)c3c[nH]cc(-c4ccc(F)cc4)c3=O)cc2F)c1Cl + Cc1nc(Nc2ncc(C(=O)Nc3c(C)cccc3Cl)s2)cc(N2CCN(CCO)CC2)n1 [dasatinib]	5.58 µM	5.54 µM	4.03 µM	7.6 µM	> 10 µM	> 10 µM	> 10 µM	> 10 µM	0.349	0.395	0.323	0.44	0.717	0.559	0.56	0.617	2.29	2.2	2.03	2.28	4.48	2.34	2.52	3.3
NC1(Cc2ccc(Cl)cc2)CCN(c2ncnc3[nH]ccc23)CC1 + Cc1nc(Nc2ncc(C(=O)Nc3c(C)cccc3Cl)s2)cc(N2CCN(CCO)CC2)n1 [dasatinib]	5.14 µM	1.48 µM	2.55 µM	0.353 µM	3.23 µM	4.47 µM	2.13 µM	8.07 µM	0.323	0.165	0.202	0.00351	0.0115	0.356	0.207	0.401	2.5	2.04	2.19	1.97	3.84	2.36	2.38	3.16
